Laboratory results from patent US7423017B2, “Method for treating cartilage disorders” (Genentech, Inc., priority 1997, dated 2008).
Positions of bridges follow the written chain, without caps; N, C: chain ends. Residues, ends and D or L forms follow the SMILES beside them. No end group written: not given here.

Key:
IGFBP-1 [1] = target: T1, IGFBP-1 (Homo sapiens, UniProt P08833); assay: BIAcore competition assay: IGFBP-1 binding to IGF-I; parameters: made in house; host or cells: CHO cells; details: for Fold potency reduction IC50 (BP1-01) / IC50 (mut): locked-helix variants
T1 sequence (P08833 26-259): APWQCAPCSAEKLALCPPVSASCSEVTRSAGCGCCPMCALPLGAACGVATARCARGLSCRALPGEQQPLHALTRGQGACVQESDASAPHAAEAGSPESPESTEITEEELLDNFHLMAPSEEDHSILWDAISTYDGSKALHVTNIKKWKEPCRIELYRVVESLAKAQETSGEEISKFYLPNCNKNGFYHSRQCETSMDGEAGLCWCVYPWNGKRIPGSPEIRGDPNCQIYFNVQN
Description: Two series of synthetic peptide variants were generated to determine which side chains of the BP1-01 peptide might contribute directly to binding IGFBP-1. In the first series an alanine-scanning approach (Cunningham and Wells, Science, 244: 1081-1085 (1989)) was used to remove that portion of each side chain beyond the beta carbon. The contribution of these atoms to the free energy of binding of the peptide to IGFBP-1 was then assessed by measuring the potency (IC50) of the variant for inhibiting IGFBP-1 binding to IGF-I or IGF-II in a BIAcore™ competition assay, analogous to that described for IGFBP-3.
Peptides were assayed in a BIAcore™ assay as described in WO 98/45427, supra. These inhibition assays (FIG. 35) compared the relative potency of these peptides for blocking the interaction of IGFBP-1 with IGF-1.
The peptide BP1-625 fraction was lyophilized and resuspended in 100 mM HEPES buffer, pH 7.2.

IGFBP-1 [2] = target: T1, IGFBP-1; assay: BIAcore direct binding kinetics of peptides on immobilized IGFBP-1; parameters: made in house; host or cells: CHO cells; details: for Kd: koff/kon, BIAcore kinetics, read-out: KD ± (SD or SE)
Description: WO 98/45427 published Oct. 15, 1998 discloses the preparation and characterization of the IGFBP-1 displacer peptide BP1-01 ([…]) (SEQ ID NO:26). The kinetics of BP1-01 peptide variants were examined in a BIAcore™ (BIAcore, Inc., Piscataway, N.J.) assay using IGFBP-1 covalently coupled via EDC/NHS (as described by the manufacturer) to a dextran chip. […] The latter implies a half-life for peptide dissociation from IGFBP-1 of approximately 28 sec. The association rate constant is moderately fast, consistent with the notion that the peptide may not undergo significant conformation change upon binding to IGFBP-1.
Inhibition assays for measuring relative potencies of peptides for inhibiting IGFBP-1 binding to IGF-I have been described (e.g., WO 98/45427, supra). Peptides described herein were of sufficient binding affinity to allow for direct measurement of binding affinities by surface plasmon resonance (SPR) using a BIACORE™ system. The direct binding kinetics of IGFBP-1 peptides were measured by injecting a series of 2-fold diluted peptides in running buffer (0.05% TWEEN 20™ in PBS) over a carboxy-methyl (CM) biosensor chip coupled with about 590-1000 RU of IGFBP-1 at a flow rate of 50 μl/min on a BIACORE 2000™ or BIACORE 3000™ surface-plasmon-resonance instrument. The immobilization of IGFBP-1 was performed through EDC/NHS chemistry as described by the manufacturer. Peptides were also injected through a flow cell containing IGFBP-3 as background control. Since the off-rate for most of the peptides is relatively fast (in the range of 2×10^−2 s^−1), off-rate measurement was set for 30 minutes. This allowed for regeneration of IGFBP-1 on the chip by simple dissociation, rather than by addition of eluent. For each dilution of peptides, a global fit of the sensorgram data was performed using a 1:1 Langmuir binding model.

IGFBP-1 [3] = target: T1, IGFBP-1; assay: KIRA cell-based assay of IGF-like activity displaced by peptides from IGF-1/IGFBP-1; details: 2 nM IGF-1, […] IGFBP-1
Description: A cell-based (KIRA) assay was previously described for measuring the amount of IGF-like activity displaced by peptides from mixtures of IGF-1 and binding proteins (Lowman et al., supra, 1998; WO 98/45427, supra). The KIRA assay was used to compare in vitro bioactivity of BP1-16, BP1-02, BP1-25, and BP1-40. […] IGF-1 and peptide were mixed and added to cells expressing IGF receptor for 30 min, then IGFBP-1 was added for an additional 1 h.

IGFBP-3 [4] = target: T2, IGFBP-3 (Homo sapiens, UniProt P17936); assay: IGF-1 blocking phage assay: peptide-phage binding to coated IGFBP-3 with/without IGF-1; details: 100 nM IGF-1; 50-fold dilution of phage
T2 construct: made in house
T2 sequence (P17936 28-291): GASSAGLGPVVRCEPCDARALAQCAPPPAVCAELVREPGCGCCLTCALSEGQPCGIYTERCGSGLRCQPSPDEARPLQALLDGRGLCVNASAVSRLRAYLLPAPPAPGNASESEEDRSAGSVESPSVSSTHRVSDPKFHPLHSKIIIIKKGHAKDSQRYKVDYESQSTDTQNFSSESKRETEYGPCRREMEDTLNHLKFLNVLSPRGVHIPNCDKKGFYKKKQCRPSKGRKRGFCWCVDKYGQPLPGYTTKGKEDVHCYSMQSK
Description: IGFBP-3 was coated directly onto MAXISORP198 plates as above. Phage from clonal cultures were mixed with IGF-1 (100 nM final concentration), and incubated with the immobilized IGFBP-3 for 1 hour at room temperature. The plates were then washed ten times, as above, and a solution of rabbit anti-phage antibody mixed with a goat-anti-rabbit conjugate of horseradish peroxidase was added. After an incubation of 1 hour at room temperature, the plates were developed with a chromogenic substrate, o-phenylenediamine (Sigma). The reaction was stopped with addition of ½ volume of 2.5 M H2SO4. Optical density at 490 nm was measured on a spectrophotometric plate reader.
In each case, the phagemid clone was grown from a single colony overnight at 37° C. in a culture volume of 5 ml. The phage particles were precipitated and resuspended in 0.5 ml of PBS buffer. A 50-fold dilution of each phage solution was made into PBS/TWEEN™ buffer, and the phage were incubated with or without 100 nM IGF-1 on an IGFBP-3-coated MAXISORP™ plate.
In each case, the phagemid clone was grown from a single colony overnight at 37° C. in a culture volume of 5 ml. The phage particles were prepared as described above.

IGFBP-3 [5] = target: T2, IGFBP-3; assay: phage-ELISA competition assay of g3 peptide-phage clones; format: binding; details: g3 monovalent display
Description: A third clone, 3Ai.2, represents a new peptide sequence that was not identified from g8 display.

GQQSCAAGPLQWLCEHYFSTYGR (disulfide 5-14 (inferred)) [BP1-625]
improved potency over BP1-01 (IGFBP-1 [1]; 9-10 nM IGFBP-1): about 20 fold

acRAGPLEWLAEKYEG (Ac-RAGPLEWLAEKYEG; bridge 6-13; not fully specified) [(i + 7)D]
Fold potency reduction IC50 (BP1-01) / IC50 (mut) (IGFBP-1 [1]): 8

CC(C)C[C@@H]1NC(=O)[C@H](Cc2c[nH]c3ccccc23)NC(=O)[C@H](CCC(N)=O)NC(=O)[C@H](CC(C)C)NC(=O)[C@@H]2CCCN2C(=O)CNC(=O)[C@H](C)NC(=O)[C@H](CCCNC(=N)N)NC(=O)[C@@H](NC(=O)[C@@H](NC(=O)[C@H](CCCNC(=N)N)NC(=O)[C@H](C)NC(=O)[C@@H](N)CCC(=O)O)C(C)C)CSSC[C@@H](C(=O)N[C@@H](CCC(=O)O)C(=O)N[C@@H](CCCCN)C(=O)N[C@@H](Cc2ccc(O)cc2)C(=O)N[C@@H](Cc2ccccc2)C(N)=O)NC1=O [BP1-20] (H-EARVCRAGPLQWLCEKYF-NH2; disulfide 5-14; N-terminus assumed)
Kd (IGFBP-1 [2]): 33 ± 15 nM

acRPLEWLAEKYFE (Ac-RPLEWLAEKYFE; bridge 4-12) [(i + 8)B]
Fold potency reduction IC50 (BP1-01) / IC50 (mut) (IGFBP-1 [1]): 8

CC(C)C[C@@H]1NC(=O)[C@H](Cc2c[nH]c3ccccc23)NC(=O)[C@H](CCC(N)=O)NC(=O)[C@H](CC(C)C)NC(=O)[C@@H]2CCCN2C(=O)CNC(=O)[C@H](C)NC(=O)[C@H](CCCNC(=N)N)NC(=O)[C@@H](NC(=O)[C@@H](NC(=O)[C@H](CCCNC(=N)N)NC(=O)[C@H](C)NC(=O)[C@@H](N)CCC(=O)O)C(C)C)CSSC[C@@H](C(=O)N[C@@H](CCC(=O)O)C(=O)N[C@@H](CCCCN)C(=O)N[C@@H](Cc2ccc(O)cc2)C(=O)N[C@@H](Cc2ccccc2)C(=O)N[C@@H](CO)C(=O)N[C@H](C(=O)N[C@@H](Cc2ccc(O)cc2)C(=O)O)[C@@H](C)O)NC1=O [BP1-25] (H-EARVCRAGPLQWLCEKYFSTY-OH; disulfide 5-14; N-terminus and C-terminus assumed)
Kd (IGFBP-1 [2]): 42 ± 11 nM | EC20 (concentration at which 20% of maximal IGF-1 activity is observed) (IGFBP-1 [3]): 10 to 20 nM

SGGAIYMPVEQFIAFMAVGK [23A3.5]
inhibited for binding to IGFBP-3 (phage clone with vs without IGF-1) (IGFBP-3 [4]): about 20%

EESECFEGPGYVICGLVG [g3-4B3.3]
apparent affinity in phage-ELISA competition assays (IGFBP-3 [5]): < 100 nM

CC(C)C[C@@H]1NC(=O)[C@H](Cc2c[nH]c3ccccc23)NC(=O)[C@H](CCC(N)=O)NC(=O)[C@H](CC(C)C)NC(=O)[C@@H]2CCCN2C(=O)CNC(=O)[C@H](C)NC(=O)[C@H](CCCNC(=N)N)NC(=O)[C@@H](NC(=O)CNC(=O)[C@@H](NC(=O)[C@H](CCC(=O)O)NC(=O)[C@@H](N)CO)C(C)C)CSSC[C@@H](C(=O)N[C@@H](CCC(=O)O)C(=O)N[C@@H](CCCCN)C(=O)N[C@@H](Cc2ccc(O)cc2)C(=O)N[C@@H](Cc2ccccc2)C(=O)NCC(=O)O)NC1=O [BP1-02] (H-SEVGCRAGPLQWLCEKYFG-OH; disulfide 5-14; N-terminus and C-terminus assumed)
half-life for peptide dissociation from IGFBP-1 (IGFBP-1 [2]): approximately 28 sec | Kd (IGFBP-1 [2]): 210 ± 46 nM | kon (IGFBP-1 [2]; peptide on immobilized IGFBP-1, read-out: association rate constant): 230000 M⁻¹ s⁻¹ | EC20 (concentration at which 20% of maximal IGF-1 activity is observed) (IGFBP-1 [3]): 150 to 200 nM

acRAGPLEWLAEKYFE (Ac-RAGPLEWLAEKYFE; bridge 6-14; not fully specified) [(i + 8)C]
Fold potency reduction IC50 (BP1-01) / IC50 (mut) (IGFBP-1 [1]): 6

SGGAIYWPVEQFIAFMAVGK [23A3.3]
inhibited for binding to IGFBP-3 (phage clone with vs without IGF-1) (IGFBP-3 [4]): about 20%

CC(C)C[C@@H]1NC(=O)[C@H](Cc2c[nH]c3ccccc23)NC(=O)[C@H](CCC(N)=O)NC(=O)[C@H](CC(C)C)NC(=O)[C@@H]2CCCN2C(=O)CNC(=O)[C@H](C)NC(=O)[C@H](CCCNC(=N)N)NC(=O)[C@@H](N)CSSC[C@@H](C(=O)N[C@@H](CCC(=O)O)C(=O)N[C@@H](CCCCN)C(=O)N[C@@H](Cc2ccc(O)cc2)C(=O)N[C@@H](Cc2ccccc2)C(=O)NCC(N)=O)NC1=O [BP1-01] (H-CRAGPLQWLCEKYFG-NH2; disulfide 1-10)
Fold potency reduction IC50 (BP1-01) / IC50 (mut) (IGFBP-1 [1]): 1

VAWEVCWDRHDQGYICTTDS [4D3.11]
inhibited for binding to IGFBP-3 (phage clone with vs without IGF-1) (IGFBP-3 [4]): 5%

CC(C)C[C@@H]1NC(=O)[C@H](Cc2c[nH]c3ccccc23)NC(=O)[C@H](CCC(N)=O)NC(=O)[C@H](CC(C)C)NC(=O)[C@@H]2CCCN2C(=O)CNC(=O)[C@H](C)NC(=O)[C@H](CCCNC(=N)N)NC(=O)[C@@H](NC(=O)CNC(=O)[C@@H](NC(=O)[C@H](CCC(=O)O)NC(=O)[C@@H](N)CO)C(C)C)CSSC[C@@H](C(=O)N[C@@H](CCC(=O)O)C(=O)N[C@@H](CCCCN)C(=O)N[C@@H](Cc2ccc(O)cc2)C(=O)N[C@@H](Cc2ccccc2)C(=O)N[C@@H](CO)C(=O)N[C@H](C(=O)N[C@@H](Cc2ccc(O)cc2)C(N)=O)[C@@H](C)O)NC1=O [BP1-21A] (H-SEVGCRAGPLQWLCEKYFSTY-NH2; disulfide 5-14; N-terminus assumed)
Kd (IGFBP-1 [2]): 41 ± 17 nM | IGF-I Inhibition IC50 (114)/IC50 (mut) (IGFBP-1 [1]; relative to BP1-14): 3

acLEWLAEKYFE (Ac-LEWLAEKYFE; bridge 2-10) [(i + 8)A]
Fold potency reduction IC50 (BP1-01) / IC50 (mut) (IGFBP-1 [1]): >200

VAWEVCWDRHDQGYICTTDS [g3-4D3.11]
apparent affinity in phage-ELISA competition assays (IGFBP-3 [5]): < 100 nM

CC(C)C[C@@H]1NC(=O)[C@H](Cc2c[nH]c3ccccc23)NC(=O)[C@H](CCC(N)=O)NC(=O)[C@H](CC(C)C)NC(=O)[C@@H]2CCCN2C(=O)CNC(=O)[C@H](C)NC(=O)[C@H](CCCNC(=N)N)NC(=O)[C@@H](NC(=O)[C@H](CO)NC(=O)[C@H](CCC(N)=O)NC(=O)[C@H](CCC(N)=O)NC(=O)CN)CSSC[C@@H](C(=O)N[C@@H](CCC(=O)O)C(=O)N[C@@H](CCCCN)C(=O)N[C@@H](Cc2ccc(O)cc2)C(=O)N[C@@H](Cc2ccccc2)C(=O)N[C@@H](CO)C(=O)N[C@H](C(=O)N[C@@H](Cc2ccc(O)cc2)C(=O)O)[C@@H](C)O)NC1=O [BP1-40] (H-GQQSCRAGPLQWLCEKYFSTY-OH; disulfide 5-14; N-terminus and C-terminus assumed)
Kd (IGFBP-1 [2]): 27 ± 21 nM | EC20 (concentration at which 20% of maximal IGF-1 activity is observed) (IGFBP-1 [3]): 10 to 20 nM
